The nature of data set [1]: Dynamic light scattering of the self-assembled probe nanoparticles. Format: physicochemical. Particulars: compound 3 20 μM in phosphate buffer solution pH=7.4, dynamic light scattering. The protocol: (§1) 40 μL of compound 3 (1 mM) in a phosphate buffer solution was taken by using a pipette and placed in an ep-tube. 1960 μL of a phosphate buffer solution (pH=7.4) was added into the ep-tube under an ultrasonic condition so that the final concentration of compound 3 was 20 μM. The mixture was stirred for 30 min under room temperature to generate opalescence. In order to verify nano-aggregation behavior thereof, an average particle size thereof measured by a dynamic light scattering experiment was 600 nm, as shown in FIG. 1.

Data set [2] in a line: Linear relationship between fluorescence intensity of the probe nanoparticles and lysophosphatidic acid concentration. Particulars: compound 3 20 μM, phosphate buffer pH 7.4, incubated 1 min at room temperature. How it is done: as §1
A series of different volumes of the stock solution of lysophosphatidic acid in the phosphate buffer solution were respectively added to the system prepared in Example 2, so that the final concentrations of lysophosphatidic acid respectively were 0 μM, 0.2 μM, 0.4 μM, 0.8 μM, 1.0 μM, 1.2 μM, 1.4 μM, 1.8 μM, 2.0 μM, 4.0 μM, 8.0 μM, 10.0 μM, 12.0 μM, 14.0 μM, 16.0 μM, 18.0 μM, 20.0 μM, 25.0 μM, 30.0 μM, 33.0 μM. After all of testing solution were prepared, the testing solutions were mixed uniformly with a vortex. After being incubated for 1 min at room temperature, the fluorescence emission intensity thereof at 557 was measured.

Data set [3] is described as follows: Selectivity of the fluorescent nanoprobe for detecting lysophosphatidic acid. Particulars: compound 3 10 μM, excitation 400 nm. The protocol:
The prepared fluorescent molecular probe solution was used for evaluating the selectivity of the probe to lysophosphatidic acid. An excitation wavelength of the nanoprobe was 400 nm. The concentration of the compound 3 in the system was 10 μM. Lysophosphatidic acid with a final concentration of 50 μM and L-proline, glycerin, sodium phosphate, magnesium sulfate, sodium acetate, sodium nitrate, sodium fluoride, glucose, urea, and lysophosphatidyl choline (LPC) with a final concentration of 1 mM were respectively added into the system. After fully mixing, the systems were incubated for 1 min at room temperature. Then fluorescence emission spectra thereof were measured and the fluorescence emission intensities at 557 nm were recorded.

The structures appear in SMILES notation.

Turning to `COc1ccc(-c2nc(-c3cc[n+](CCCCCCCCCCCC[n+]4ccccc4)cc3)n(-c3ccccc3)c2-c2ccc(OC)cc2)cc1` [Compound 3], in data set [1], the average particle size worked out at 600 nm. Also, the “lysophosphatidic acid concentration range with good linear relationship to fluorescence intensity at 557 nm” value in data set [2] is 0 to 33 µM. Besides, the “fluorescence emission at 557 nm after addition of lysophosphatidic acid” value in data set [3] (lysophosphatidic acid 50 μM, 1 min at room temperature) was “strong yellow fluorescence”. The “fluorescence emission at 557 nm after addition of other substances” value in data set [3] (L-proline, glycerin, sodium phosphate, magnesium sulfate, sodium acetate, sodium nitrate, sodium fluoride, glucose, urea, LPC each 1 mM) is given as “could not be observed to generate yellow fluorescence”.
